Results: US20250171438A1 (Agios Pharmaceuticals, Inc., priority 2022, published 2025)

The compounds below were run against T1, human PAH with the R408W mutation (Homo sapiens, UniProt P00439, R408W) (assay: Cell Based Phenylalanine Flux Assay). Conditions: A375 cells expressing human R408W PAH; 24 hrs compound incubation; 13C-Tyrosine by LC-MS; average where tested multiple times; read-out: AC50.
T1 construct: expressed in transfected cells
T1 sequence (P00439 1-452 R408W): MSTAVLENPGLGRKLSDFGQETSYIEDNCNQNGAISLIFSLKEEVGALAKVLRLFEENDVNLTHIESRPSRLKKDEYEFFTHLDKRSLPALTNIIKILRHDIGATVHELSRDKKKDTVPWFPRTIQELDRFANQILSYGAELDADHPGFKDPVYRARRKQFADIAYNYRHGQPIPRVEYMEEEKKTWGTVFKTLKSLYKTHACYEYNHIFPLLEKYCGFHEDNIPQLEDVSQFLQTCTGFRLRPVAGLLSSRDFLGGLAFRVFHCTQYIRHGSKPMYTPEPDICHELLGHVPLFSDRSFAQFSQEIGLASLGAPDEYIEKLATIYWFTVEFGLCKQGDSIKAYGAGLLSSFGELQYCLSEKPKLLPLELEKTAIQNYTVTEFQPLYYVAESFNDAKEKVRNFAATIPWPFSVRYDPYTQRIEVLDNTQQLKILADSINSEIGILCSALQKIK

Row | AC50 | SMILES
1 | 1000 to 5000 nM | O=C(c1oc(C2(O)CC2)nc1C(F)F)N1CCc2[nH]cnc2[C@@H]1c1nc2ccccc2s1 [Example 2056, (R)-(4-(benzo[d]thiazol-2-yl)-6,7-dihydro-1H-imidazo[4,5-c]pyridin-5(4H)-yl)(4-(difluoromethyl)-2-(1-hydroxycyclopropyl)oxazol-5-yl)methanone]
2 | < 500 nM | CCn1ncnc1C(=O)N1CCc2[nH]cnc2[C@H]1c1nc2c(F)cccc2s1 [Example 1959]
3 | < 500 nM | O=C(c1cnc(-c2ccccc2)o1)N1CCc2[nH]cnc2[C@H]1c1nc2ccccc2s1 [Example 1207]
4 | 1000 to 5000 nM | O=C(c1cnn2ccc(Br)cc12)N1CCc2[nH]cnc2[C@@H]1c1nc2cccc(F)c2s1 [Example 1284, (R)-(5-bromopyrazolo[1,5-a]pyridin-3-yl)(4-(7-fluorobenzo[d]thiazol-2-yl)-6,7-dihydro-1H-imidazo[4,5-c]pyridin-5(4H)-yl)methanone]
5 | 500 to 1000 nM | CC(C)(O)c1nnc(C(=O)N2CC3(CC3)c3[nH]cnc3[C@H]2c2nc3ccccc3s2)o1 [Example 1696, (S)-(4′-(benzo[d]thiazol-2-yl)spiro[cyclopropane-1,7′-imidazo[4,5-c]pyridin]-5′(1′H,4′H,6′H)-yl)(5-(2-hydroxypropan-2-yl)-1,3,4-oxadiazol-2-yl)methanone]
6 | > 5000 nM | O=C(c1ccn2ncccc12)N1CCc2[nH]cnc2[C@@H]1c1nc2ccccc2s1 [Example 1530, (R)-(4-(benzo[d]thiazol-2-yl)-6,7-dihydro-1H-imidazo[4,5-c]pyridin-5(4H)-yl)(pyrrolo[1,2-b]pyridazin-5-yl)methanone]
7 | < 500 nM | O=C(c1ocnc1C(F)(F)F)N1CCc2[nH]cnc2[C@H]1c1nc2ccccc2[nH]1 [Example 994, (S)-(4-(1H-benzo[d]imidazol-2-yl)-6,7-dihydro-1H-imidazo[4,5-c]pyridin-5(4H)-yl)(4-(trifluoromethyl)oxazol-5-yl)methanone]
8 | > 5000 nM | Cn1cc(C(=O)N2CCc3[nH]cnc3[C@@H]2c2nc3ccccc3s2)c(Cl)n1 [Example 1869, (R)-(4-(benzo[d]thiazol-2-yl)-6,7-dihydro-1H-imidazo[4,5-c]pyridin-5(4H)-yl)(3-chloro-1-methyl-1H-pyrazol-4-yl)methanone]
9 | < 500 nM | CC(O)c1nc(Br)c(C(=O)N2CCc3[nH]cnc3[C@H]2c2nc3c(F)cccc3s2)o1 (single isomer, unassigned) [Example 2058]
10 | 1000 to 5000 nM | CC(C)(C)n1ncc(C(=O)N2CCc3[nH]cnc3[C@@H]2c2nc3c(F)cccc3s2)c1Cl [Example 1932, (R)-(1-(tert-butyl)-5-chloro-1H-pyrazol-4-yl)(4-(4-fluorobenzo[d]thiazol-2-yl)-6,7-dihydro-1H-imidazo[4,5-c]pyridin-5(4H)-yl)methanone]
11 | < 500 nM | O=C(c1cnc(-c2c(F)cccc2F)s1)N1CCc2[nH]cnc2[C@@H]1c1nc2ccccc2s1 [Example 1510, (R)-(4-(benzo[d]thiazol-2-yl)-6,7-dihydro-1H-imidazo[4,5-c]pyridin-5(4H)-yl)(2-(2,6-difluorophenyl)thiazol-5-yl)methanone]
12 | 500 to 1000 nM | CC(C)(C)CCC(=O)N1CCc2[nH]cnc2[C@H]1c1nc2ccc(Br)cc2[nH]1 [Example 942, (S)-1-(4-(6-bromo-1H-benzo[d]imidazol-2-yl)-6,7-dihydro-1H-imidazo[4,5-c]pyridin-5(4H)-yl)-4,4-dimethylpentan-1-one]
13 | < 500 nM | Cn1cc(C(=O)N2CCc3[nH]cnc3[C@H]2c2nc3ccccc3s2)c(C(F)F)n1 [Example 1821]
14 | 1000 to 5000 nM | O=C(c1cnc(C2CC2)o1)N1CCc2[nH]cnc2[C@@H]1c1nc2c(F)cccc2s1 [Example 1330, (R)-(2-cyclopropyloxazol-5-yl)(4-(4-fluorobenzo[d]thiazol-2-yl)-6,7-dihydro-1H-imidazo[4,5-c]pyridin-5(4H)-yl)methanone]
15 | < 500 nM | O=C(c1cnc(-c2c(F)cccc2F)s1)N1CCc2[nH]cnc2[C@H]1c1nc2ccccc2s1 [Example 1509]
16 | < 500 nM | Cn1cc(-c2ccc3c(C(=O)N4CCc5[nH]cnc5[C@H]4c4nc5ccccc5s4)cnn3c2)cn1 [Example 1213]

The next lines start with the compound.

Row | SMILES | AC50
17 | CC(C)(O)c1ccc2c(C(=O)N3CCc4[nH]cnc4[C@H]3c3nc4c(F)cccc4s3)cnn2c1 [Example 1501, (S)-(4-(4-fluorobenzo[d]thiazol-2-yl)-6,7-dihydro-1H-imidazo[4,5-c]pyridin-5(4H)-yl)(6-(2-hydroxypropan-2-yl)pyrazolo[1,5-a]pyridin-3-yl)methanone] | < 500 nM
18 | O=C(c1cnn2ccccc12)N1CCc2[nH]cnc2[C@@H]1c1nc2cccc(F)c2s1 [Example 1110, (R)-(4-(7-fluorobenzo[d]thiazol-2-yl)-6,7-dihydro-1H-imidazo[4,5-c]pyridin-5(4H)-yl)(pyrazolo[1,5-a]pyridin-3-yl)methanone] | 500 to 1000 nM
19 | N#Cc1nc(N2CCC(F)CC2)oc1C(=O)N1CCc2[nH]cnc2[C@@H]1c1nc2ccccc2s1 [Example 1652, (R)-5-(4-(benzo[d]thiazol-2-yl)-4,5,6,7-tetrahydro-1H-imidazo[4,5-c]pyridine-5-carbonyl)-2-(4-fluoropiperidin-1-yl)oxazole-4-carbonitrile] | > 5000 nM
20 | O=C(CC1CC(F)C1)N1CCc2[nH]cnc2[C@@H]1c1nc2c(F)cccc2s1 (stereo partly drawn) [Example 1650, (R)-1-(4-(4-fluorobenzo[d]thiazol-2-yl)-6,7-dihydro-1H-imidazo[4,5-c]pyridin-5(4H)-yl)-2-(3-fluorocyclobutyl)ethanone] | 1000 to 5000 nM
21 | O=C(CC1CC1(F)F)N1CCc2[nH]cnc2[C@@H]1c1nc2ccccc2s1 (stereo partly drawn) [Example 1272, 1-((R)-4-(benzo[d]thiazol-2-yl)-6,7-dihydro-1H-imidazo[4,5-c]pyridin-5(4H)-yl)-2-(2,2-difluorocyclopropyl)ethenone] | > 5000 nM
22 | c1ccc2sc([C@@H]3c4nc[nH]c4CCN3Cc3nccs3)nc2c1 [Example 1139, (S)-2-(5-(thiazol-2-ylmethyl)-4,5,6,7-tetrahydro-1H-imidazo[4,5-c]pyridin-4-yl)benzo[d]thiazole] | 500 to 1000 nM
23 | O=C(c1nnc(-c2ccc(C(F)(F)F)cc2)o1)N1CCc2[nH]cnc2[C@@H]1c1nc2ccccc2s1 [Example 1767, (R)-(4-(benzo[d]thiazol-2-yl)-6,7-dihydro-1H-imidazo[4,5-c]pyridin-5(4H)-yl)(5-(4-(trifluoromethyl)phenyl)-1,3,4-oxadiazol-2-yl)methanone] | 1000 to 5000 nM
24 | C[C@H](O)c1nc(C(F)F)c(C(=O)N2CCc3[nH]cnc3[C@@H]2c2nc3c(F)cccc3s2)o1 [Example 1962, (4-(difluoromethyl)-2-((S)-1-hydroxyethyl)oxazol-5-yl)((R)-4-(4-fluorobenzo[d]thiazol-2-yl)-6,7-dihydro-1H-imidazo[4,5-c]pyridin-5(4H)-yl)methanone] | 1000 to 5000 nM
25 | Cc1nn(C)cc1-c1ncc(C(=O)N2CCc3[nH]cnc3[C@@H]2c2nc3ccccc3s2)s1 [Example 1380, (R)-(4-(benzo[d]thiazol-2-yl)-6,7-dihydro-1H-imidazo[4,5-c]pyridin-5(4H)-yl)(2-(1,3-dimethyl-1H-pyrazol-4-yl)thiazol-5-yl)methanone] | 1000 to 5000 nM
26 | CC(C)(F)c1ccc2c(C(=O)N3CCc4[nH]cnc4[C@@H]3c3nc4ccccc4s3)cnn2c1 [Example 1480, (R)-(4-(benzo[d]thiazol-2-yl)-6,7-dihydro-1H-imidazo[4,5-c]pyridin-5(4H)-yl)(6-(2-fluoropropan-2-yl)pyrazolo[1,5-a]pyridin-3-yl)methanone] | 1000 to 5000 nM
27 | Cc1csc(CCC(=O)N2CCc3[nH]cnc3[C@H]2c2nc3ccccc3s2)n1 [Example 1079] | 500 to 1000 nM
28 | O=C(CCc1nccs1)N1CCc2[nH]cnc2[C@@H]1c1nc(-c2ccccc2)cs1 [Example 2144, (R)-1-(4-(4-phenylthiazol-2-yl)-6,7-dihydro-1H-imidazo[4,5-c]pyridin-5(4H)-yl)-3-(thiazol-2-yl)propan-1-one] | > 5000 nM
29 | O=C(c1cnc(-c2cnn(CC(F)(F)F)c2)s1)N1CCc2[nH]cnc2[C@H]1c1nc2ccccc2s1 [Example 1361] | < 500 nM
30 | O=C(Cc1nccs1)N1CCc2[nH]cnc2[C@@H]1c1nc2cccc(Br)c2s1 [Example 1175, (R)-1-(4-(7-bromobenzo[d]thiazol-2-yl)-6,7-dihydro-1H-imidazo[4,5-c]pyridin-5(4H)-yl)-2-(thiazol-2-yl)ethanone] | 1000 to 5000 nM

Same assay, conditions: A375 cells expressing human R408W PAH; 24 hrs with compound; 13C-Tyrosine by LC-MS; average where tested multiple times; read-out: AC50

Row | AC50 | SMILES
31 | 1000 to 5000 nM | Cn1nc(C(F)(F)F)nc1C(=O)N1CCc2[nH]cnc2C1c1nc2ccccc2s1 (stereo not drawn)
32 | 1000 to 5000 nM | O=C(C1CC1(F)F)N1CCc2[nH]cnc2C1c1nc2c(F)cccc2s1 (stereo not drawn)
33 | > 5000 nM | O=C(c1cnn2c(Br)cccc12)N1CCc2[nH]cnc2C1c1nc2ccc(Cl)cc2[nH]1 (stereo not drawn)
34 | > 5000 nM | Cc1ncc(CC(=O)N2CCc3[nH]cnc3[C@H]2c2nc3ccccc3[nH]2)o1 [(S)-1-(4-(1H-benzo[d]imidazol-2-yl)-6,7-dihydro-1H-imidazo[4,5-c]pyridin-5(4H)-yl)-2-(2-methyloxazol-5-yl)ethanone]
35 | > 5000 nM | Cn1nc(CC#N)nc1C(=O)N1CCc2[nH]cnc2C1c1nc2c(F)cccc2s1 (stereo not drawn)
36 | > 5000 nM | N#Cc1nc(NCC(F)(F)F)oc1C(=O)N1CCc2[nH]cnc2C1c1nc2ccccc2s1 (stereo not drawn)

The next lines start with the compound.

Row | SMILES | AC50
37 | O=C(Cc1nccs1)N1CCc2[nH]cnc2C1c1nc2cccc(F)c2s1 (stereo not drawn) | > 5000 nM
38 | CC(=O)N1CCc2[nH]cnc2[C@H]1c1nc2ccccc2s1 (single isomer, unassigned) | 1000 to 5000 nM
39 | O=C(c1cnn2cccc(F)c12)N1CCc2[nH]cnc2C1c1nc2cc(F)ccc2s1 (stereo not drawn) | > 5000 nM
